Assay results reported in patent publication US12077503B2, “Substituted cyclic amides and their use as herbicides” (FMC CORPORATION, priority 2015, dated 2024).

Columns and labels:
Format in all cases: in vivo
[1] = test system: velvetleaf (Abutilon theophrasti); test: Test G Post-Emergence Protocol; conditions: Abutilon theophrasti, post-emergence, 312 h, read-out: Velvetleaf damage rating
Summary of the method: (§1)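 A glasshouse post-emergence test: 8-day-old plants sprayed at 15.625, 62.5 or 250 g/ha, then grown at 24/16 °C day/night with 14 h light and 65% humidity. Damage rated 13 days later, 0–100.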

[2] = test system: corn (Zea mays); test: Test G Post-Emergence Protocol; conditions: Zea mays, post-emergence, 312 h, read-out: Corn damage rating
Summary of the method: as §1

[3] = test system: redroot pigweed (Amaranthus retroflexus); test: Test G Post-Emergence Protocol; conditions: Amaranthus retroflexus, post-emergence, 312 h, read-out: Pigweed, Redroot damage rating
Summary of the method: as §1

[4] = test system: giant foxtail (Setaria faberi); test: Test G Post-Emergence Protocol; conditions: Setaria faberi, post-emergence, 312 h, read-out: Foxtail, Giant damage rating
Summary of the method: as §1

[5] = test system: barnyardgrass (Echinochloa crus-galli); test: Test G Post-Emergence Protocol; conditions: Echinochloa crus-galli, post-emergence, 312 h, read-out: Barnyardgrass damage rating
Summary of the method: as §1

[6] = test system: ivy-leaved morning glory (Ipomoea hederacea); test: Test G Post-Emergence Protocol; conditions: Ipomoea, post-emergence, 312 h, read-out: Morningglory, Ivy-leaved damage rating
Summary of the method: as §1

[7] = test system: velvetleaf (Abutilon theophrasti); test: Test G Pre-Emergence Protocol; conditions: Abutilon theophrasti, pre-emergence, 312 h, evaluated after 13 days
Summary of the method: (§2)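 Glasshouse pre-emergence test: soil-sown seeds, sprayed after 1 d at 15.625, 62.5 or 250 g/ha. Conditions 24/16° C day/night, 14 h light, 65% humidity, watering twice daily. Rating 13 d post-spray (100 = total damage).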

[8] = test system: corn (Zea mays); test: Test G Pre-Emergence Protocol; conditions: Zea mays, pre-emergence, 312 h, evaluated after 13 days
Summary of the method: as §2

[9] = test system: redroot pigweed (Amaranthus retroflexus); test: Test G Pre-Emergence Protocol; conditions: Amaranthus retroflexus, pre-emergence, 312 h, evaluated after 13 days
Summary of the method: as §2

[10] = test system: giant foxtail (Setaria faberi); test: Test G Pre-Emergence Protocol; conditions: Setaria faberi, pre-emergence, 312 h, evaluated after 13 days
Summary of the method: as §2

[11] = test system: barnyardgrass (Echinochloa crus-galli); test: Test G Pre-Emergence Protocol; conditions: Echinochloa crus-galli, pre-emergence, 312 h, evaluated after 13 days
Summary of the method: as §2

[12] = test system: ivy-leaved morning glory (Ipomoea hederacea); test: Test G Pre-Emergence Protocol; conditions: Ipomoea, pre-emergence, 312 h, evaluated after 13 days
Summary of the method: as §2

[13] = 15.625 g ai/ha, evaluated after 13 days (100=total damage to plant; 0=no damage to plant)
[14] = 62.5 g ai/ha, evaluated after 13 days, 100=total damage to plant, 0=no damage to plant
[15] = 250 g ai/ha, evaluated after 13 days, 100=total damage to plant, 0=no damage to plant

SMILES: CCOc1cc([C@@H]2CN(C)C(=O)[C@H]2C(=O)Nc2cccc(F)c2C)ccc1C(F)(F)F (racemic) [Compound 1787]
- pest or weed control at 15.625 g/ha [1, 13]: 20%
- pest or weed control at 62.5 g/ha [1, 14]: 20%
- pest or weed control at 250 g/ha [1, 15]: 40%
- plant injury at 15.625 g/ha [2, 13]: 30%
- plant injury at 62.5 g/ha [2, 14]: 50%
- plant injury at 250 g/ha [2, 15]: 60%
- pest or weed control at 15.625 g/ha [3, 13]: 20%
- pest or weed control at 62.5 g/ha [3, 14]: 20%
- pest or weed control at 250 g/ha [3, 15]: 70%
- pest or weed control at 15.625 g/ha [4, 13]: 40%
- pest or weed control at 62.5 g/ha [4, 14]: 70%
- pest or weed control at 15.625 g/ha [5, 13]: 20%
- pest or weed control at 62.5 g/ha [5, 14]: 60%
- pest or weed control at 250 g/ha [5, 15]: 60%
- pest or weed control at 15.625 g/ha [6, 13]: 50%
- pest or weed control at 62.5 g/ha [6, 14]: 70%
- pest or weed control at 250 g/ha [6, 15]: 70%
- pest or weed control at 15.625 g/ha ([7]; 15.625 g ai/ha, read-out: Velvetleaf damage rating (100=total damage to plant; 0=no damage to plant)): 0%
- pest or weed control at 62.5 g/ha ([7]; 62.5 g ai/ha, 100=total damage to plant, 0=no damage to plant, read-out: Velvetleaf damage rating): 10%
- pest or weed control at 250 g/ha ([7]; 250 g ai/ha, read-out: Velvetleaf damage rating (100=total damage to plant; 0=no damage to plant)): 20%
- plant injury at 15.625 g/ha ([8]; 15.625 g ai/ha, read-out: Corn damage rating (100=total damage to plant; 0=no damage to plant)): 20%
- plant injury at 62.5 g/ha ([8]; 62.5 g ai/ha, 100=total damage to plant, 0=no damage to plant, read-out: Corn damage rating): 20%
- plant injury at 250 g/ha ([8]; 250 g ai/ha, read-out: Corn damage rating (100=total damage to plant; 0=no damage to plant)): 40%
- pest or weed control at 15.625 g/ha ([9]; 15.625 g ai/ha, read-out: Pigweed, Redroot damage rating (100=total damage to plant; 0=no damage to plant)): 0%
- pest or weed control at 62.5 g/ha ([9]; 62.5 g ai/ha, 100=total damage to plant, 0=no damage to plant, read-out: Pigweed, Redroot damage rating): 0%
- pest or weed control at 250 g/ha ([9]; 250 g ai/ha, read-out: Pigweed, Redroot damage rating (100=total damage to plant; 0=no damage to plant)): 20%
- pest or weed control at 15.625 g/ha ([10]; 15.625 g ai/ha, read-out: Foxtail, Giant damage rating (100=total damage to plant; 0=no damage to plant)): 60%
- pest or weed control at 62.5 g/ha ([10]; 62.5 g ai/ha, 100=total damage to plant, 0=no damage to plant, read-out: Foxtail, Giant damage rating): 70%
- pest or weed control at 250 g/ha ([10]; 250 g ai/ha, read-out: Foxtail, Giant damage rating (100=total damage to plant; 0=no damage to plant)): 90%
- pest or weed control at 15.625 g/ha ([11]; 15.625 g ai/ha, read-out: Barnyardgrass damage rating (100=total damage to plant; 0=no damage to plant)): 50%
- pest or weed control at 62.5 g/ha ([11]; 62.5 g ai/ha, 100=total damage to plant, 0=no damage to plant, read-out: Barnyardgrass damage rating): 60%
- pest or weed control at 250 g/ha ([11]; 250 g ai/ha, read-out: Barnyardgrass damage rating (100=total damage to plant; 0=no damage to plant)): 90%
- pest or weed control at 15.625 g/ha ([12]; 15.625 g ai/ha, read-out: Morningglory, Ivy-leaved damage rating (100=total damage to plant; 0=no damage to plant)): 0%
- pest or weed control at 62.5 g/ha ([12]; 62.5 g ai/ha, 100=total damage to plant, 0=no damage to plant, read-out: Morningglory, Ivy-leaved damage rating): 0%
- pest or weed control at 250 g/ha ([12]; 250 g ai/ha, read-out: Morningglory, Ivy-leaved damage rating (100=total damage to plant; 0=no damage to plant)): 20%
